Test results as given in publication PMC7663272, “Discovery of Tricyclic Pyranochromenone as Novel Bruton’s Tyrosine Kinase Inhibitors with In Vivo Antirheumatic Activity” (International Journal of Molecular Sciences, 2020).
Read-outs that look alike come from different tables or passages of the source.

What was measured:
Format in all cases: biochemical
BTK-wt = biological target: T1, BTK-wt (Homo sapiens, UniProt Q06187); experiment: HotSpot kinase enzymatic assay, BTK-wt
T1 construct: purchased Reaction Biology Corporation
T1 sequence (Q06187 whole entry): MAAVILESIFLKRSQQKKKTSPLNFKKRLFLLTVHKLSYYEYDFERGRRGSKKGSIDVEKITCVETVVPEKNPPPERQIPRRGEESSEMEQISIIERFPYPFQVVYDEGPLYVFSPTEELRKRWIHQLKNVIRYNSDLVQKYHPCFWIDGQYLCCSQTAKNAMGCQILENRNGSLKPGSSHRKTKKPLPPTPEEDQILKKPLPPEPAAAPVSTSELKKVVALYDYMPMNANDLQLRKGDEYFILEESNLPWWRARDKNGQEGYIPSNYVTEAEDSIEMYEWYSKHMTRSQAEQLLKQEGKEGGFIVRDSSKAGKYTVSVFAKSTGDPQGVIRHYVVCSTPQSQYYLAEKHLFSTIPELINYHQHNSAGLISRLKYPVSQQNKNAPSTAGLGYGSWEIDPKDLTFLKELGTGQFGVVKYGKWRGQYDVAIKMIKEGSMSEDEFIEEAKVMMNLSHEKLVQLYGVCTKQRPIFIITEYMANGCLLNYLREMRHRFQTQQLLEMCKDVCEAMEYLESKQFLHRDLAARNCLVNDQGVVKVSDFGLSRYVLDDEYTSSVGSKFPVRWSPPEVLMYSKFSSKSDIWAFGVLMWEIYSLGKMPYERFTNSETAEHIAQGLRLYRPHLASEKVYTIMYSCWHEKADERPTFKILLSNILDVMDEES
Procedure: Kinase enzymatic assays for BTK, BMX, TXK, TEC, ITK, EGFR, ERBB2, ERBB4, and JAK3 were performed at Reaction Biology Corporation (www.reactionbiology.com, Malvern, PA, USA) using the HotSpot assay platform. Briefly, specific kinase/substrate pairs and the required cofactors were prepared in a reaction buffer comprising 20 mM HEPES (pH 7.5), 10 mM MgCl2, 1 mM EGTA, 0.02% Brij35, 0.02 mg/mL BSA, 0.1 mM Na3VO4, 2 mM DTT, and 1% DMSO. The compounds were added to the reaction mixture and allowed to incubate. Approximately 20 min later, a mixture of ATP (Sigma-Aldrich, St. Louis, MO, USA) and ^33P ATP (PerkinElmer, Waltham, MA, USA) was added to the reaction mixture at a final concentration of 10 μM. The reactions were performed at room temperature for 120 min; subsequently, the reactions were spotted onto P81 ion exchange filter papers (Whatman Inc., Maidstone, UK). […] GraphPad Prism software was used to obtain the IC50 values and perform curve fitting.

TXK = biological target: T2, TXK (Homo sapiens, UniProt P42681); experiment: HotSpot kinase enzymatic assay, TXK
T2 construct: purchased Reaction Biology Corporation
T2 sequence (P42681 1-527): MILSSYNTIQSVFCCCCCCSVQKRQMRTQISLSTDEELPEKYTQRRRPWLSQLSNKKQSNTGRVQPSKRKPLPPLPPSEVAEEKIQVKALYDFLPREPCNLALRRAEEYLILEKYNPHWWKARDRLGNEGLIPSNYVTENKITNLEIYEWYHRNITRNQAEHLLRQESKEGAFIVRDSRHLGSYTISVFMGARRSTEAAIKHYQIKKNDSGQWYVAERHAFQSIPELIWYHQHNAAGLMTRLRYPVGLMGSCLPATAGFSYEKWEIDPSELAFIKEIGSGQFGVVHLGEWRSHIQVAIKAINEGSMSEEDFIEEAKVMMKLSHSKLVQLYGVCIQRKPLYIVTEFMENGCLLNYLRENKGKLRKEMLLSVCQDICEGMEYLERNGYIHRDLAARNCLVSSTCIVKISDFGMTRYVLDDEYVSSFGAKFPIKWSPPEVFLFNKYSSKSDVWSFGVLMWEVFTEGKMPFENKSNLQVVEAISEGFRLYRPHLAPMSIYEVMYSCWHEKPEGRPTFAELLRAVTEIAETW
Procedure: (§1) Therefore, efforts have focused on developing new compounds with good selectivity profiles. […] Compound 8 was selective against BTK. The biochemical activities of compound 8 differed among TEC family kinases. […] The inhibitory potential of compound 8 differed between members of the EGFR family. […] The inhibitory activity of compound 8 against JAK3 was also low.
(§2) Kinase enzymatic assays for BTK, BMX, TXK, TEC, ITK, EGFR, ERBB2, ERBB4, and JAK3 were performed at Reaction Biology Corporation (www.reactionbiology.com, Malvern, PA, USA) using the HotSpot assay platform. Briefly, specific kinase/substrate pairs and the required cofactors were prepared in a reaction buffer comprising 20 mM HEPES (pH 7.5), 10 mM MgCl2, 1 mM EGTA, 0.02% Brij35, 0.02 mg/mL BSA, 0.1 mM Na3VO4, 2 mM DTT, and 1% DMSO. The compounds were added to the reaction mixture and allowed to incubate. Approximately 20 min later, a mixture of ATP (Sigma-Aldrich, St. Louis, MO, USA) and ^33P ATP (PerkinElmer, Waltham, MA, USA) was added to the reaction mixture at a final concentration of 10 μM. The reactions were performed at room temperature for 120 min; subsequently, the reactions were spotted onto P81 ion exchange filter papers (Whatman Inc., Maidstone, UK). Any unbound phosphate was removed by thoroughly washing the filter papers with 0.75% phosphoric acid. […]

ITK = biological target: T3, ITK (Homo sapiens, UniProt Q08881); experiment: HotSpot kinase enzymatic assay, ITK
T3 construct: purchased Reaction Biology Corporation
T3 sequence (Q08881 1-620): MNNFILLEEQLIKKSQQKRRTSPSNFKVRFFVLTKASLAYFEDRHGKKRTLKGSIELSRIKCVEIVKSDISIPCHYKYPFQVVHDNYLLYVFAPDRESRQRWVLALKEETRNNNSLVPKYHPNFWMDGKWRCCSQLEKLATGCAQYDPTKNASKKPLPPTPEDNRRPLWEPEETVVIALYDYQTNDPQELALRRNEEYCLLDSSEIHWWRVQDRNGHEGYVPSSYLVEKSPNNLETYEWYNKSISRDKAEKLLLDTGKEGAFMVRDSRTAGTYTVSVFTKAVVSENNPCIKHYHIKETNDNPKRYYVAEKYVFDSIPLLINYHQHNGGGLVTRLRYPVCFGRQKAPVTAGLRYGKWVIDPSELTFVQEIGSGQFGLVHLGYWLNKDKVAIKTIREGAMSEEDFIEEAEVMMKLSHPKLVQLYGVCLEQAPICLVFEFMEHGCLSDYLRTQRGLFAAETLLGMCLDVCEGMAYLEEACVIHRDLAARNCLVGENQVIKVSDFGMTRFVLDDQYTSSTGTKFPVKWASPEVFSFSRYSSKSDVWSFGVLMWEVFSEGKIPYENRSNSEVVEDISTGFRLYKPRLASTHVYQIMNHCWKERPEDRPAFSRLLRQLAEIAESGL
Procedure: as §1, §2

With `C=CC(=O)O[C@H]1Cc2cc3ccc(=O)oc3cc2OC1(C)C` [Compound 8, (7S)-(+)-Acrylic acid, 8,8-dimethyl-2-oxo-6,7-dihydro-2H,8H-pyrano [3,2-g]chromen-7-yl ester] the inhibition at 10 µM (BTK-wt; vs negative control (DMSO), mean of two separate experiments, NA = not active at 10 µM, read-out: % Inhibition (10 µM) BTK-wt) was 98.2%, the IC50 (BTK-wt; HotSpot assay, 10 μM ATP, GraphPad Prism) was 800 nM and the inhibition at 10 µM (BTK-wt; Table 2 selectivity profile, mean of two experiments, read-out: % Inhibition at 10 µM, BTK) was 98.2%. For the same molecule, the “kinase selectivity (in words)” value (BTK-wt; over EGFR and TEC family kinases, JAK3) was “selective for BTK over ITK, EGFR, ERBB4, and JAK3”, the “inhibitory activity against TXK (in words)” value (TXK) was “strong inhibitory activity” and the inhibition at 10 µM (TXK; 10 µM, mean of two experiments) was 88.5%. For the same molecule, the “inhibitory activity against ITK (in words)” value (ITK) was “weak inhibitory activity” and the inhibition at 10 µM (ITK; 10 µM, mean of two experiments) was 17.3%.
